The record followed here is PubChem BioAssay (NCI).

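Compound exposure: 48 hours, 5 concentrations, 96-well plates. GI50 marks 50% less growth. TGI: total growth inhibition.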 *1 amine or outer side, *2 acyl side, *3 side chain or, on linkers, in order; H or OH if unused. Where a SMILES comes first, the peptide text is derived from it. Bridges are numbered along the chain shown (N, C = ends). [ ]: non-standard residue; d: D form. The star is where a group is joined. X19 = O=C([C@H](N[*:1])c1ccc(O[C@H]2O[C@@H](CO)[C@@H](O)[C@@H](O)[C@H]2O[C@@H]2O[C@H](CO)[C@H](O)[C@H](O)[C@@H]2O)cc1)[*:2]; X18 = NC(=O)[C@@H](O[*:3])[C@H](N[*:1])C(=O)[*:2]; X20 = O=C([C@H](N[*:1])c1ccc(O)c(Cl)c1)[*:2]; d(aThr) = C[C@@H](O)[C@@H](N)C(=O)O; dHpg = N[C@@H](C(=O)O)c1ccc(O)cc1; X17 = CC(C)C/C=C/C=C/C(=O)*; dOrn = NCCC[C@@H](N)C(=O)O Where only a bound is given, the exact number is not on record here.

Holding throughout (assay): growth of human tumour cells (NCI), 48 h
For test [1], the system named is A549 NSCLC.
The subject of test [2] is ACHN renal.
The test system of test [3] is EKVX NSCLC.
Test [4] deals with HOP-62 NSCLC.
Test [5] has as its system HOP-92 NSCLC.
The subject of test [6] is NCI-H23 lung.
Test [7] relates to SF-268 CNS.
The test system of test [8] is SF-539 CNS.
The subject of test [9] is SK-OV-3 ovarian.
Test [10] deals with SNB-19 CNS.

`O=C1/C(=C/c2ccccc2)CN(CCC(=O)N2C/C(=C\c3ccccc3)C(=O)/C(=C/c3ccccc3)C2)C/C1=C\c1ccccc1`: the GI50 in [1] is 29.3 µM; in test [2], 8.92 µM; in test [3] it was 18.2 µM; in test [4] it was 19.2 µM; in [5], 10.4 µM; in test [6] it was 11.5 µM. Besides, the GI50 in test [7] is 12.2 µM; in test [8], 13.9 µM; in test [9], 24.9 µM; in [10] it was 13.2 µM. Besides, the TGI was > 100 µM in test [1]; 30.3 µM in test [2]; 67.5 µM in test [3]; 49.1 µM in [4]; 29.7 µM in test [5]; 33.5 µM in test [6]. Moreover, the TGI is > 100 µM in test [7], 50.6 µM in test [8], > 75.2 µM in test [9] and > 93.4 µM in test [10].

Consider `CC(C)C/C=C/C=C/C(=O)N[C@@H](CC(N)=O)C(=O)N[C@@H]1C(=O)N[C@H](c2ccc(O)cc2)C(=O)N[C@H](CCCN)C(=O)N[C@H]([C@@H](C)O)C(=O)N[C@H](c2ccc(O)cc2)C(=O)N[C@H](c2ccc(O)cc2)C(=O)N[C@H]([C@H](C)O)C(=O)N[C@H](Cc2ccccc2)C(=O)N[C@H](CCCN)C(=O)N[C@H](c2ccc(O[C@H]3O[C@@H](CO)[C@@H](O)[C@@H](O)[C@H]3O[C@@H]3O[C@H](CO)[C@H](O)[C@H](O)[C@@H]3O)cc2)C(=O)N[C@H]([C@H](C)O)C(=O)N[C@H](c2ccc(O)cc2)C(=O)NCC(=O)N[C@H](CC(C)C)C(=O)N[C@H](C)C(=O)N[C@H](c2ccc(O)c(Cl)c2)C(=O)O[C@@H]1C(N)=O` (X17-N[X18][dHpg][dOrn][d(aThr)][dHpg][dHpg][dT][dF][dOrn][X19][dT][dHpg]G[dL][dA][X20]; ester 2-C), for which the GI50 was > 100 µM in test [1]; 68.7 µM in test [2]; 50.6 µM in test [3]; 29.9 µM in test [4]; 80 µM in [5]; 25.8 µM in test [6]. Besides, the GI50 was 34.2 µM in test [7], 22.8 µM in test [8], 25.3 µM in test [9] and 23.9 µM in test [10]. The TGI in test [1] was > 100 µM; in test [2], > 100 µM; in [3], > 100 µM; in [4], 78.2 µM; in test [5] it was > 100 µM; in test [6], 88.9 µM. The TGI was > 100 µM in [7], 60.9 µM in test [8], 64.9 µM in [9] and 55.4 µM in [10].

For the compound `O=C1CCC2=C3C4CCCCC4C(=O)C4CCCC(OC2C1)C34` (centres undefined), the GI50 in test [1] was 2.57 µM; in test [2], 0.382 µM; in [3] it was 12.6 µM; in test [4] it was 2.72 µM; in test [5] it was 2.43 µM; in test [6] it was 0.417 µM. The GI50 is 0.471 µM in [7], 2.44 µM in test [8], 5.18 µM in test [9] and 2.59 µM in test [10]. The TGI was 13.2 µM in [1]; > 100 µM in [3]; 32.8 µM in test [4]; 8.95 µM in test [5]; 2.73 µM in test [6]; > 21.8 µM in [7]. Further, the TGI in test [8], in test [9] and in [10] was > 100 µM throughout.

Turning to `COc1ccc(C(=O)C(Br)C(Br)C(=O)O)cc1` (centres undefined), the TGI in [1], in test [2], in test [3], in test [4], in [5] and in [6] was > 100 µM throughout. Moreover, the TGI was > 100 µM in [7], 51.8 µM in test [8], > 100 µM in test [9] and > 100 µM in test [10].

With `ClC1(c2ccccc2)c2ccc(Br)cc2-c2cc(Br)ccc21`, the TGI was 34.3 µM in test [1]; 29.6 µM in test [2]; 32.3 µM in test [3]; 33.4 µM in test [4]; 29.2 µM in [5]; 29.3 µM in [6]. The TGI in test [7] came out at 39.7 µM; in test [8], 33.3 µM; in [9] it was 39.1 µM; in test [10] it was 31.3 µM.

Take `Cc1ccc(C(=O)CCC2C(=O)CC(C)(C)CC2=O)cc1`: the TGI in [1], in test [2], in test [3], in test [4], in test [5] and in test [6] was > 100 µM in each case. In addition, the TGI in test [7], in [8], in [9] and in test [10] was > 100 µM throughout.

For `COc1cc([C@@H]2c3cc4c(cc3[C@@H](NCc3ccc(C#N)cc3)C3COC(=O)[C@@H]32)OCO4)cc(OC)c1O` (some centres undefined), the TGI in test [1] was determined as 1.54 µM; in test [2], 1.55 µM; in [3], 5.76 µM; in test [4], 1.41 µM; in test [5], 49.4 µM; in test [6], 1.43 µM. In addition, the TGI in test [7] is 6.6 µM; in test [8], 2.36 µM; in test [9] it was 3.9 µM; in test [10], > 100 µM.

In the case of `CCN(CC)C(=O)CNC(=O)OC(C)(C)C`, the TGI in test [1], in test [2], in test [3], in test [4], in test [5] and in test [6] was > 100 µM throughout. For the same compound, the TGI in test [7], in test [8], in [9] and in test [10] was > 100 µM throughout.

`NCC1OC(n2cnc3c(=O)[nH]c(N)nc32)C(O)C1O` (centres undefined): the TGI in [1], in test [2], in [3], in test [4], in test [5] and in test [6] was > 100 µM in each case. Further, the TGI in test [7], in test [8], in test [9] and in [10] was > 100 µM in each case.

On to `CN(C1=NS(=O)(=O)N=C(N(C)c2ccccc2)O1)c1ccccc1`, for which the TGI in test [1] came to 54.4 µM; in test [2] it was 31.7 µM; in test [3] it was 48.6 µM; in test [4] it was 41.9 µM; in test [5], 54.6 µM; in test [6], 28.3 µM. The TGI in test [7] came out at 57 µM; in [8], 39.3 µM; in [9], 78.8 µM; in [10] it was 43.4 µM.
